Test results taken from the kinase profiling compilation of Christmann-Franck et al. (2016).

System: SGK1 (human), O00141 [S422D]
Assay: radiometric filter-binding kinase assay, Kinase HotSpot
Conditions: compound 0.5 µM; ATP 10 µM

Sequence of SGK1 (human), O00141 [S422D] (O00141 whole entry S422D, looked up): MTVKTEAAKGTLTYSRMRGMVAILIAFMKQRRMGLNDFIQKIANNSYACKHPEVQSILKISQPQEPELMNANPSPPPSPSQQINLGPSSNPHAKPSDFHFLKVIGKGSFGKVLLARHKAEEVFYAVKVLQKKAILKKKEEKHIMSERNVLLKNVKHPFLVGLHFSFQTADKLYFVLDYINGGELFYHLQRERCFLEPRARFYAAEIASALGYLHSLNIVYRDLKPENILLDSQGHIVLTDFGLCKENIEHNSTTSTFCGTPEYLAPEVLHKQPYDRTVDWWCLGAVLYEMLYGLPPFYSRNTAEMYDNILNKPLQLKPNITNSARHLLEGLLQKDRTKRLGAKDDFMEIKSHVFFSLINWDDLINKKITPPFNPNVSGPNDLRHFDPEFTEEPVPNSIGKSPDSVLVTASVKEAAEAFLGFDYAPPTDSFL

Structure (SMILES) | residual activity
Cn1nc2c3c(cccc31)C(=O)c1ccccc1-2 | 94.8%
O=C1NC(=O)c2c1c1c3ccccc3[nH]c1n1cncc21 | 69%
CN([C@@H](Cc1ccc(OS(=O)(=O)c2cccc3cnccc23)cc1)C(=O)N1CCN(c2ccccc2)CC1)S(=O)(=O)c1cccc2cnccc12 | 105%
COc1cc(Nc2c(C#N)cnc3cc(OCCCN4CCN(C)CC4)c(OC)cc23)c(Cl)cc1Cl | 126%
c1ccc(-c2n[nH]cc2-c2ccnc3ccccc23)nc1 | 103%
CNc1cc2c(Nc3cccc(Br)c3)ncnc2cn1 | 94.4%
CO[C@H]1CC2CC[C@@H](C)[C@@](O)(O2)C(=O)C(=O)N2CCCC[C@H]2C(=O)OC([C@H](C)C[C@@H]2CC[C@@H](O)[C@H](OC)C2)CC(=O)[C@H](C)/C=C(\C)[C@@H](O)[C@@H](OC)C(=O)[C@H](C)C[C@H](C)/C=C/C=C/C=C/1C (stereo partly specified) | 101%
O=C(O)/C=C/c1cc(Br)c(Br)c(Br)c1Br | 76.7%
Cc1ccc(Nc2nccc(N(C)c3ccc4c(C)n(C)nc4c3)n2)cc1S(N)(=O)=O | 125%
COc1cc2ncnc(Nc3cccc(Cl)c3)c2cc1OC | 91.3%
O=C1Cc2c([nH]c3ccc([N+](=O)[O-])cc23)-c2ccccc2N1 | 96%
O=C(CCCc1ccc(-c2ccccc2F)cc1)Nc1ccc(O)cc1 | 103%
Ic1cccc(CSc2nnc(-c3ccncc3)o2)c1 | 99%
N#Cc1c[nH]c2c[nH]/c(=N\Cc3cccnc3)cc2/c1=N\c1ccc(F)c(Cl)c1 | 93.2%
CCN1/C(=C/C(C)=O)Sc2ccc(OC)cc21 | 121%
CCN(CC)CCCCN1c2ccccc2Oc2ccc(Cl)cc21 | 99.4%
O=C1NC(=O)C(c2cn(CCCn3ccnc3)c3ccccc23)=C1Nc1ccccc1 | 74.9%
Nc1nc(Nc2ccc(S(N)(=O)=O)cc2)nn1C(=S)Nc1c(F)cccc1F | 48.7%
O=C1Cc2c([nH]c3ccc(Br)cc23)-c2ccccc2N1 | 107%
COc1cc2ncnc(N3CCN(C(=O)Nc4ccc(Oc5ccccc5)cc4)CC3)c2cc1OC | 99.8%
Nc1ncnc2c1c(-c1ccc(Oc3ccccc3)cc1)cn2C1CCCC1 | 103%
CCC(=O)Nc1ccc2ncnc(Nc3cccc(Br)c3)c2c1 | 84.6%
CC(C)c1nn(-c2c(Cl)cccc2Cl)c2nc(Cc3ccc(OCCO)cc3)nc(O)c12 | 118%
Cc1cncc2cccc(S(=O)(=O)N3CCCN(C(=O)CN)C[C@H]3C)c12 | 103%
O=C(Nc1ccc(Cl)cc1)c1ccccc1NCc1ccncc1 | 96%
COc1cc2ncc(-c3ccccc3)nc2cc1OC | 88.5%

Structure (SMILES) | residual activity
Cn1c2ccccc2c2c3c(c4c5ccccc5n(CCC#N)c4c21)CNC3=O | 79.1%
O=C(Nc1cccc(Nc2cc(Nc3cccc(C(F)(F)F)c3)ncn2)c1)C1CC1 | 94.8%
Nc1n[nH]c2nnc(-c3c(-c4ccccc4)nn4ccccc34)cc12 | 99.9%
COc1cc2ncnc(Nc3ccc(OCc4ccccc4)cc3)c2cc1OC | 103%
O=C1NC(=O)/C(=C\c2ccc3nccnc3c2)S1 | 95%
C[C@@H]1CCN(C(=O)CC#N)C[C@@H]1N(C)c1ncnc2[nH]ccc12 | 123%
COc1cc2nccc(Oc3ccc(NC(=S)NC(=O)c4ccccc4C)cc3)c2cc1OC | 101%
COc1ccc(CNC(=O)Nc2ncc([N+](=O)[O-])s2)cc1 | 105%
COc1ccc(COc2ccc(Cc3cnc(N)nc3N)cc2OC)cc1 | 97.9%
N#CC(C#N)=C(N)/C(C#N)=C/c1ccc(O)cc1 | 96.1%
O=C1NC(=O)c2c1c1c3ccccc3n3c1c1c2c2ccccc2n1C1CCC3O1 | 23.8%
CSc1nc(-c2ccc(F)cc2)c(-c2ccnc(NC(C)c3ccccc3)c2)[nH]1 (stereo unspecified) | 97.3%
CCCCc1c(-c2ccc(OC)cc2)[nH]c2nccnc12 | 88.4%
Oc1ccc(Nc2nc(-c3ccc(Cl)cc3)cs2)cc1 | 106%
Oc1cccc(-c2nc(N3CCOCC3)c3oc4ncccc4c3n2)c1 | 100%
O=C(Nc1cccc(Nc2nccc(Nc3cccc(C(F)(F)F)c3)n2)c1)C1CC1 | 103%
O=C(c1cc2cc(O)ccc2[nH]1)c1cc2cc(O)ccc2[nH]1 | 74.2%
O=C1NC(=O)C(c2cn(CCCO)c3ncccc23)=C1c1cnccn1 | 91.2%
Cc1nc(-c2ccccc2)c(-c2ccncc2)o1 | 99.3%
O=c1cc(N2CCNCC2)oc2c(-c3ccccc3)cccc12 | 103%
CN(C)C[C@H]1CCn2c(c(C3=C(c4cn(C)c5ccccc45)C(=O)NC3=O)c3ccccc32)C1 | 72.9%
CN(C)CCCn1cc(C2=C(c3c[nH]c4ccccc34)C(=O)NC2=O)c2ccccc21 | 48.6%
COc1ccc2c(c1)/C(=C/c1cnc[nH]1)C(O)=N2 | 71.5%
COc1ccc(S(=O)(=O)N(CCO)c2ccccc2CN(C)C/C=C/c2ccc(Cl)cc2)cc1 | 103%
Nc1ncnc2[nH]nc(Nc3ccc(F)cc3)c12 | 91.5%
CN(C)c1ccc(/C=C2\C(=O)Nc3ccccc32)cc1 | 93.1%

Structure (SMILES) | residual activity
O=C1Nc2cc(Br)ccc2/C1=C1/Nc2ccccc2/C1=N\O | 60.9%
O=C1c2ccccc2-c2nc3nnnn3nc21 | 67.2%
C#Cc1cccc(Nc2ncnc3cc(OCCOC)c(OCCOC)cc23)c1 | 122%
O=C1NC(=O)/C(=C/c2ccc3c(c2)OC(F)(F)O3)S1 | 102%
O=C1Nc2ccccc2/C1=C1\Nc2ccccc2\C1=N/O | 69.1%
Cc1nc2cc3nc(-c4cccs4)cnc3cc2n1C | 95.9%
CCn1cnc2c(Nc3cccc(Cl)c3)nc(N[C@@H]3CCCC[C@@H]3N)nc21 | 120%
O=C1Nc2ccc(Br)cc2/C1=C\c1cc2c([nH]1)CCCC2 | 93.4%
CS(=O)c1ccc(-c2nc(-c3ccc(F)cc3)c(-c3ccncc3)[nH]2)cc1 (stereo unspecified) | 97.3%
Cc1ccc(NC2=CC(=O)c3sc(C)nc3C2=O)cc1 | 114%
COc1ccc(OC)c2c(=S)c3ccccc3[nH]c12 | 125%
c1ccc2c(-c3ccncc3)c[nH]c2c1 | 93.8%
O=C(NC(NC(=S)Nc1ccc(F)c([N+](=O)[O-])c1)C(Cl)(Cl)Cl)C(c1ccccc1)c1ccccc1 (stereo unspecified) | 93.1%
CC(C)(C)c1cc(C=C(C#N)C#N)cc(Br)c1O | 95.3%
CC(C)[C@H](CO)Nc1nc(Nc2cccc(Cl)c2)c2ncn(C(C)C)c2n1 | 99.1%
Cc1ccc(NC(=O)c2ccc(CN3CCN(C)CC3)cc2)cc1Nc1nc(-c2cccnc2)cs1 | 111%
CCCC(=O)Oc1ccc2[nH]c(C(=O)c3cc4ccccc4[nH]3)cc2c1 | 97%
Nc1nnc2[nH]c3ccccc3nc1-2 | 114%
Nc1cccc(-c2cc3c(Oc4cccc(O)c4)ncnc3[nH]2)c1 | 101%
CCN(CC)CCNC(=O)c1c(C)[nH]c(/C=C2\C(=O)Nc3ccc(F)cc32)c1C | 62.8%
CC(=O)O/N=C1\C(=C2\C(=O)Nc3cc(Br)ccc32)Nc2ccccc21 | 81.8%
Fc1ccc(-c2nc3n(c2-c2ccncc2)CCS3)cc1 | 100%
Cc1ccc(S(=O)(=O)/C=C/C#N)cc1 | 98.7%
COc1ccc(-c2cnc3c(-c4ccsc4)cnn3c2)cc1 | 81.8%
